Experimental data as given in paper PMC11061149, “Protein mimetic 2D FAST rescues alpha synuclein aggregation mediated early and post disease Parkinson’s phenotypes” (Nature Communications, 2024).
“And” between values parts separate entries of the source, which are not always exact repeats. Equal values may be shown once.

Legend:
[1] = target: T1, αS fibers-catalyzed aggregation of αS (Homo sapiens, UniProt P37840); assay: αS fibers-catalyzed aggregation of αS, ThT kinetic assay; assay type: biochemical
T1 construct: made in house; host or cells: E. coli BL21(DE3)

[2] = system: HEK293 cells stably expressing αS-A53T-YFP; assay: ProteoStat dye assay and confocal imaging, ligand post treatment, αS fibers templated intracellular aggregation; assay type: cell-based, human
Experimental: To test the antagonist activity of NS163 against intracellular αS aggregation, we utilized HEK293 cells, which stably express αS-A53T-YFP[23],[24],[50]. The endogenous monomeric αS-A53T-YFP template into fibers when transfected with exogenously added αS fibers in the presence of Lipofectamine 3000 (Fig. 3a)[23],[24],[50]. In this assay, preformed fibers of αS (5 µM monomer concentration) were introduced to the HEK cells, followed by the introduction of NS163 to the cells after 8 h, which is the time required for the internalization of aS fibers, as we have shown recently. The HEK cells were incubated for an additional […], which is the total time (24 h) required for the complete maturation of aS inclusions in the HEK cells. To test the effect of the NS163 on the intracellular inclusions (αS-A53T-YFP), we used confocal imaging and a ProteoStat dye-based assay recently developed in our lab[24]. […] NS163 was able to reduce the intracellular inclusions of αS by 76% and 90% at 10 µM and 25 µM, respectively, measured using the ProteoStat dye-based assay (Fig. 5h, +NS163). […] To test their antagonist activity against intracellular αS aggregation, we first determined the cell permeability of the tripyridyls using the PAMPA (Fig. 5a, Supplementary Fig. 18a). […]

[3] = system: NL5901 worms; assay: Motility assay of NL5901 worms (WMicroTracker ARENA); assay type: in vivo, C. elegans; details: for Motility of NL5901 worms + NS132: individual trials
Experimental: Briefly, all worm strains were bleached at the same time and the eggs were incubated on PLATE 1. On day two, the worms were divided into two batches. […] The liquid media for PLATE 4 A/B was prepared with 67.28% (v/v) of M9 buffer, 75 μM FUDR, 0.1% of 1 M magnesium sulfate (v/v), 0.1% of 1 M calcium chloride (v/v), 2.5% of 1 M potassium phosphate solution (pH 6, v/v), and 30% (v/v) of OP50 (0.5 OD600nm). […] To test the effect of each ligand on disease worm strains (NL5901 or UA196), there were four conditions were used in PLATE 4 A/B: […] The assay was started on day four using the WMicroTracker ARENA plate reader (Phylumtech, Santa Fe, Argentina) at 20 °C for 1 h per day over a 14-day period at intervals of 24 h. The WMicroTracker ARENA plate reader uses a large array of infrared light microbeams in each well of the plate to detect the interference caused by the movement of the worms. The output by the ARENA plate reader is an average of the overall movement of all worms present in each well, which is denoted as the motility of the worms in each well. […] After collecting the data each day, the PLATE 4 A/B was again placed on the shaker (100 rpm) at 20 °C in the incubator. The PLATE 4 A/B was on the on the shaker (100 rpm) at 20 °C in the incubator the whole duration of the experiment except only when the reading was collected on the WMicroTracker ARENA plate reader for 1 h.

- ThT fluorescence intensity, Average ([1]; 100 µM αS + αS fibers (20% monomer conc.) + equimolar ligand, time 0 hr): 181.667
- effect on αS fibers-catalyzed aggregation of αS, in words ([1]; 100 μM αS, preformed αS fibers 20%, equimolar ligand): wholly suppressed
- ThT fluorescence intensity, Average ([1]; seeded, equimolar ligand, time 3 hr): 168
- ThT fluorescence intensity, Average ([1]; seeded, equimolar ligand, time 6 hr): 160.333
- ThT fluorescence intensity, Average ([1]; seeded, equimolar ligand, time 9 hr): 164
- ThT fluorescence intensity, Average ([1]; seeded, equimolar ligand, time 12 hr): 200.667
- ThT fluorescence intensity, Average ([1]; seeded, equimolar ligand, time 24 hr): 255
- ThT fluorescence intensity, Average ([1]; seeded, equimolar ligand, time 36 hr): 243.333
- ThT fluorescence intensity, Average ([1]; seeded, equimolar ligand, time 48 hr): 299.333
SMILES: Cc1ccc(NC(=O)c2ccc(NC(=O)c3ccc([N+](=O)[O-])c(NCCc4c[nH]c5ccccc45)n3)c(NCC3CCCCC3)n2)c(OCC(=O)O)n1 [NS132]
- ProteoStat dye intensity (raw), individual trials ([2]; 5 μM αS fibers, ligand 10 uM added after 8 h): 108 and 126 and 118 and 122 and 111 and 132 and 128 and 121 and 105 and 116 and 120 and 113
- reduction of intracellular inclusions of αS (ProteoStat) ([2]; ligand 10 µM added 8 h after 5 µM αS fibers): 47%
- motility of NL5901 worms, in words ([3]; 50 μM ligand on day two and day four): increase in the motility
- Motility of NL5901 worms + NS132 ([3]; Day 4): 255 and 287 and 207 and 297
- Motility of NL5901 worms + NS132 ([3]; Day 5): 181 and 139 and 108 and 189
- Motility of NL5901 worms + NS132 ([3]; Day 6): 201 and 130 and 176 and 121
- Motility of NL5901 worms + NS132 ([3]; Day 7): 101 and 172 and 160 and 83
- Motility of NL5901 worms + NS132 ([3]; Day 8): 129 and 117 and 94 and 99
- Motility of NL5901 worms + NS132 ([3]; Day 9): 107 and 89 and 145 and 65
- Motility of NL5901 worms + NS132 ([3]; Day 10): 127 and 107 and 105 and 52
- Motility of NL5901 worms + NS132 ([3]; Day 11): 74 and 83 and 88 and 72
- Motility of NL5901 worms + NS132 ([3]; Day 12): 57 and 70 and 69 and 56
- Motility of NL5901 worms + NS132 ([3]; Day 13): 38 and 34 and 42 and 33
- Motility of NL5901 worms + NS132 ([3]; Day 14): 27 and 43 and 19 and 20
